Source: paper PMC8041284, “Tunable Methacrylamides for Covalent Ligand Directed Release Chemistry” (Journal of the American Chemical Society, 2021)
Read-outs that look alike come from different tables or passages of the source.

Target: BTK (Homo sapiens, UniProt Q06187)
Experiment: biochemical
[1] = read-out: BTK inhibition (%), 0.75 uM BTK, […] probe 3l, 15 min preincubation

Chain of BTK (Q06187 402-655 limits assumed): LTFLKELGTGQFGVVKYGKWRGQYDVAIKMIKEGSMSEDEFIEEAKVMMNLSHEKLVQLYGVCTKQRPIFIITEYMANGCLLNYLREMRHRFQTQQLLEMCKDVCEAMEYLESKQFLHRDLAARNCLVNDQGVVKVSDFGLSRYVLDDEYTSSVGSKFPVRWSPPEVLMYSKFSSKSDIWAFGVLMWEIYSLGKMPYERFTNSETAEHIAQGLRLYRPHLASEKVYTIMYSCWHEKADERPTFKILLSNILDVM

inhibition at 10 µM [1] [%] | SMILES | inhibition at 10 µM (read-out: BTK inhibition (%)) [%]
-17 | Cn1c(-c2ccccc2C(F)(F)F)nnc1C12CCC(c3noc(C4CC(F)(F)C4)n3)(CC1)CC2 [PCM-0215687] | 
11 | O=C1C(c2c(O)[nH]c3ccccc23)=Nc2ccccc21 [PCM-0094833] | 
-11.7 | O=C(O)c1cc(=O)[nH]c(=O)[nH]1 [PCM-0090751] | 
21.3 | NCC1OC(OC2C(N)CC(N)C(OC3OC(CO)C(O)C(N)C3O)C2O)C(N)CC1O (stereo not drawn) [PCM-0086125] | 
6.9 | CC1(C)O[C@@H]2C[C@H]3[C@@H]4CCC5=CC(=O)C=C[C@]5(C)[C@@]4(F)[C@@H](O)C[C@]3(C)[C@]2(C(=O)CO)O1 [PCM-0095180] | 
5.4 | O=C(Cc1ccccc1)Nc1nnc(CCSCCc2nnc(NC(=O)Cc3ccccc3)s2)s1 [PCM-0215483] | 
-3.9 | CC1(C)O[C@H]2CC(=O)OC[C@]23[C@H]2CC[C@@]4(C)[C@H](c5ccoc5)OC(=O)[C@H]5O[C@]54[C@]2(C)C(=O)C[C@@H]13 [PCM-0214679] | 
4.3 | N[C@@H](CO)C(=O)O [PCM-0216618] | 
-1.5 | O=C1N=C(N2CCOCC2)CN1c1ccc(Cl)cc1 [PCM-0216140] | 
-24.7 | CCCc1cc2c(N3CCN(C4=NCC(C)(C)S4)CC3)ncnc2s1 [PCM-0215393] | 
-22.1 | CC[C@H]1OC(=O)[C@@](C)(F)C(=O)[C@H](C)[C@@H](O[C@@H]2O[C@H](C)C[C@H](N(C)C)[C@H]2O)[C@](C)(OC)C[C@@H](C)C(=O)[C@H](C)[C@H]2N(CCCCn3cc(-c4cccc(N)c4)nn3)C(=O)O[C@]12C [PCM-0216086] | 
-13.2 | CC[C@H]1OC(=O)[C@H](C)[C@@H](O[C@H]2C[C@@](C)(OC)[C@@H](O)[C@H](C)O2)[C@H](C)[C@@H](O[C@@H]2O[C@H](C)C[C@H](N(C)C)[C@H]2O)[C@](C)(O)C[C@@H](C)CN[C@H](C)[C@@H](O)[C@]1(C)O [PCM-0215099] | 
16.6 | COC(=O)[C@]12CCC(C)(C)C[C@H]1[C@H]1C(=O)C=C3[C@@]4(C)C=C(C#N)C(=O)C(C)(C)[C@@H]4CC[C@@]3(C)[C@]1(C)CC2 [PCM-0215239] | 
-11.6 | Brc1ccc2[nH]ccc2c1 [PCM-0216166] | 
-33.5 | COc1cc(C=O)cc(OC)c1O [PCM-0215069] | 
6.2 | CC(=O)O[C@H]1C[C@@]2(C)[C@@H](C[C@@H](O)[C@H]3[C@@]4(C)CC[C@@H](O)[C@@H](C)[C@@H]4CC[C@@]32C)/C1=C(\CCC=C(C)C)C(=O)O [PCM-0214838] | 
5.4 | CN(C)C(=O)[C@H](O)[C@H](Cc1ccccc1)NC(=O)c1cc2cc(Cl)ccc2[nH]1 [PCM-0065218] | 
-14 | O=C(/C=C/C=C/c1ccc2c(c1)OCO2)N1CCCCC1 [PCM-0006645] | 
-7 | COc1cc(CCC(=O)CC(=O)CCc2ccc(O)c(OC)c2)ccc1O [PCM-0216226] | 
1.6 | CC(=O)NC(CC(C)C)C(=O)O (stereo not drawn) [PCM-0214817] | 
11.7 | CC(C)N(CCCCOCC(=O)NS(C)(=O)=O)c1cnc(-c2ccccc2)c(-c2ccccc2)n1 [PCM-0214894] | 

inhibition at 10 µM [1] [%] | SMILES | inhibition at 10 µM (read-out: BTK inhibition (%)) [%]
-1.6 | CCN(CC)CCOC(=O)c1ccc(N)cc1Cl [PCM-0214797] | 
6.2 | C[C@H](NC(=O)[C@@H](O)c1cc(F)cc(F)c1)C(=O)N[C@@H]1C(=O)N(C)c2ccccc2-c2ccccc21 [PCM-0095417] | 
2.1 | CC(=O)OCC(=O)[C@@]1(O)CC[C@H]2[C@@H]3CCC4=CC(=O)C=C[C@]4(C)[C@H]3[C@@H](O)C[C@@]21C [PCM-0214701] | 
11.6 | CC1(C)CC[C@]2(C(=O)O)CC[C@]3(CO)C(=CC[C@@H]4[C@@]5(C)C[C@H](O)[C@H](O[C@@H]6O[C@H](CO)[C@@H](O)[C@H](O)[C@H]6O)[C@@](C)(C(=O)O)[C@@H]5CC[C@]43C)[C@@H]2C1 [PCM-0216380] | 
-8.5 | CCOc1ccccc1N=Nc1c(C)[nH]n(-c2nc(-c3ccccc3)cs2)c1=O [PCM-0215207] | 
10.3 | Cn1cc(C2=C(c3cn(C4CCN(Cc5ccccn5)CC4)c4ccccc34)C(=O)NC2=O)c2ccccc21 [PCM-0094982] | 
47.1 | NC(=O)c1cnc(NCCc2ccc(O)c(Cl)c2)nc1NCc1ccccc1 [PCM-0216041] | 
-2.3 | CN1C(CCl)Nc2cc(Cl)c(S(N)(=O)=O)cc2S1(=O)=O (stereo not drawn) [PCM-0095604] | 
-17.9 | CCNC1(C(N)=O)CCN(c2ncnc3c2nc(-c2ccccc2Cl)n3-c2ccc(Cl)cc2)CC1 [PCM-0095601] | 
7.7 | CC(C)=CCC[C@](C)(O[C@@H]1O[C@H](CO[C@@H]2OC[C@H](O)[C@H](O)[C@H]2O)[C@@H](O)[C@H](O)[C@H]1O)[C@H]1CC[C@]2(C)[C@@H]1[C@H](O)C[C@@H]1[C@@]3(C)CC[C@H](O[C@@H]4O[C@H](CO)[C@@H](O)[C@H](O)[C@H]4O[C@@H]4O[C@H](CO)[C@@H](O)[C@H](O)[C@H]4O)C(C)(C)[C@@H]3CC[C@]12C [PCM-0216375] | 
-12.8 | NC[C@H](CC(=O)O)c1ccc(Cl)cc1 [PCM-0095558] | 
7.7 | CC(ONC(=O)c1cc(C(F)(F)F)cc(C(F)(F)F)c1)C(=O)Nc1ccc(Cl)cc1 (stereo not drawn) [PCM-0215433] | 
-14.8 | CCCCCCCCCCCC[N+](C)(C)CCOc1ccccc1 [PCM-0214763] | 
8.3 | CC1=C(CC(=O)O)c2cc(F)ccc2/C1=C\c1ccc([S+](C)[O-])cc1 (stereo not drawn) [PCM-0065451] | 
-13.1 | COc1cc2c(=O)c3c(O)c([C@@H]4O[C@H](CO[C@@H]5OC[C@](O)(CO)[C@H]5O)[C@@H](O)[C@H](O)[C@H]4O)c(O)cc3oc2cc1O [PCM-0216492] | 
-5.4 | C[C@]1(O)C[C@@H](O)[C@@H]2C=CO[C@@H](O[C@@H]3O[C@H](CO)[C@@H](O)[C@H](O)[C@H]3O)[C@@H]21 [PCM-0216407] | 
-17.9 | NC(=O)NCCC[C@H](N)C(=O)O [PCM-0215941] | 
-4.3 | C[C@H](N)C(=O)O [PCM-0216222] | 
3.1 | Nc1ncnc2c1C(=O)N(c1ccc(C3CCC(CC(=O)O)CC3)cc1)CCO2 (stereo not drawn) [PCM-0095810] | 
13.2 | CCN(CC)CCOc1ccc(C(=C(Cl)c2ccccc2)c2ccccc2)cc1 [PCM-0090069] | 
 | O=[N+]([O-])c1ncc[nH]1 [PCM-0094820] | 3.1

inhibition at 10 µM [1] [%] | SMILES | inhibition at 10 µM (read-out: BTK inhibition (%)) [%]
16.2 | CC(/C=C/C=C(\C)C(=O)O[C@@H]1O[C@H](CO)[C@@H](O)[C@H](O)[C@H]1O)=C\C=C\C=C(C)\C=C\C=C(/C)C(=O)O[C@@H]1O[C@H](CO[C@@H]2O[C@H](CO)[C@@H](O)[C@H](O)[C@H]2O)[C@@H](O)[C@H](O)[C@H]1O [PCM-0216484] | 
3.4 | C/C=C(\C)C(=O)O[C@H]1[C@H](OC(C)=O)[C@@]2(CO)C(CC1(C)C)C1=CCC3[C@@]4(C)CCC(O[C@@H]5O[C@H](C(=O)O)[C@@H](O[C@@H]6O[C@H](CO)[C@@H](O)[C@H](O)[C@H]6O)[C@H](O)[C@H]5O[C@@H]5O[C@H](CO)[C@@H](O)[C@H](O)[C@H]5O)[C@](C)(CO)C4CC[C@@]3(C)[C@]1(C)C[C@H]2O (stereo partly drawn) [PCM-0214843] | 
11 | O=C1NC(=O)/C(=C\c2ccc(-c3ccc(F)cc3)o2)S1 [PCM-0095359] | 
-10.1 | O=C(O)c1ccc(NC(=O)[C@H](Cc2ccc(O)cc2)NC(=O)c2ccccc2)cc1 [PCM-0215250] | 
31.7 | O=C(Nc1nc2cccc(-c3ccc(CN4CCS(=O)(=O)CC4)cc3)n2n1)C1CC1 [PCM-0215361] | 
-19.3 | COC(=O)C1=CO[C@@H](O[C@@H]2O[C@H](CO)[C@@H](O)[C@H](O)[C@H]2O)[C@@H]2[C@H](C)O[C@@H](O)C[C@H]12 [PCM-0216177] | 
-16.3 | NC(=O)CN1CCCC1=O [PCM-0064964] | 
-7.8 | COc1ccccc1OCCNCC(O)COc1cccc2[nH]c3ccccc3c12 (stereo not drawn) [PCM-0065111] | 
-4.7 | C1CNCCNCCNCCN1 [PCM-0215094] | 
-22.6 | CCCCCOc1ccccc1/C(=C\SC)n1ccnc1 [PCM-0215110] | 
 | O=P(O)(O)Oc1cccc2ccccc12 [PCM-0216167] | -4.6
70.3 | CC1(C)C=Cc2c(ccc3c2OC[C@@H](c2ccc(O)cc2O)C3)O1 [PCM-0214974] | 
11.6 | Cc1cc([N+](=O)[O-])ccc1NS(=O)(=O)c1cc(Cl)ccc1Cl [PCM-0215330] | 
91.7 | CN(c1ccccc1CNc1nc(Nc2ccc3c(c2)CC(=O)N3)ncc1C(F)(F)F)S(C)(=O)=O [PCM-0215410] | 
27 | O=S(=O)(c1ccccc1)N(CC(F)(F)F)c1ccc(C(O)(C(F)(F)F)C(F)(F)F)cc1 [PCM-0095817] | 
17.2 | Oc1ccc2ccccc2c1SSc1c(O)ccc2ccccc12 [PCM-0065009] | 
2.1 | CC[C@@](C)(Nc1ccnc(-c2c[nH]c3ncccc23)n1)C(=O)NCC(F)(F)F [PCM-0215573] | 
-6.2 | COc1ccccc1N1CCN(CCN(C(=O)C2CCCCC2)c2ccccn2)CC1 [PCM-0064827] | 
3.9 | CC1(C)CC[C@]2(C(=O)O)CC[C@]3(C)C(=CC[C@@H]4[C@@]5(C)CC[C@H](O[C@@H]6O[C@H](C(=O)O)[C@@H](O)[C@H](O[C@@H]7OC[C@@H](O)[C@H](O)[C@H]7O)[C@H]6O)C(C)(C)[C@@H]5CC[C@]43C)[C@@H]2C1 [PCM-0216434] | 

SMILES | inhibition at 10 µM [1] [%] | inhibition at 10 µM (read-out: BTK inhibition (%)) [%]
C=C(CCC=C(C)C)[C@H]1CC[C@]2(C)[C@@H]1[C@H](O)C[C@@H]1[C@@]3(C)CC[C@H](O[C@@H]4O[C@H](CO)[C@@H](O)[C@H](O)[C@H]4O[C@@H]4O[C@H](CO)[C@@H](O)[C@H](O)[C@H]4O)C(C)(C)[C@@H]3CC[C@]12C [PCM-0216466] | 6.2 | 
N#CSc1cc(SC#N)c(N)nc1N [PCM-0095820] | 112 | 
CNCC(O)c1ccc(O)cc1 (stereo not drawn) [PCM-0065519] | 7 | 
CC(C)(O)[C@@H]1CC[C@](C)([C@H]2[C@@H](O)C[C@@]3(C)[C@@H]4C[C@H](O[C@@H]5O[C@H](CO)[C@@H](O)[C@H](O)[C@H]5O)[C@H]5C(C)(C)[C@@H](O[C@@H]6OC[C@@H](O)[C@H](O)[C@H]6O)CC[C@@]56C[C@@]46CC[C@]23C)O1 [PCM-0215009] | 12.5 | 
CC(C)CCC[C@@H](C)[C@H]1CC[C@H]2[C@@H]3CC[C@H]4C[C@@H](O)CC[C@]4(C)[C@H]3CC[C@]12C [PCM-0216033] | -9.4 | 
